These are literature values, as cited in PMC6611794, “Development of a high-throughput strategy for discovery of potent analogues of antibiotic lysocin E” (Nature Communications, 2019).

The structures appear in SMILES notation.

As usually defined, the ED50 is the dose at which the effect has come halfway, by size or by number of responders.

For this data set, the system named is S. aureus. Set-up: method as in PMID 25485686. Conditions: S. aureus-infected mice; cited from earlier work. The source says:
Lysocin E (1, Fig. 1a) was isolated from Lysobacter sp. as a new antibiotic and structurally determined to be a 37-membered depsipeptide (molecular weight = 1618 Da) with an N-methylated amide and ester linkages. The macrocyclic core of 12 residues contains four different non-proteinogenic D-amino acids (D-Arg-2/7, N-Me-D-Phe-5, D-Gln-9, D-Trp-10) and is appended with (R)-3-hydroxy-5-methylhexanamide. […] Screening of the additives ind ...

As to `CN[C@H](CC(C)C)C(=O)N[C@H]1C(=O)N[C@@H](CC(N)=O)C(=O)N[C@H]2C(=O)N[C@H]3C(=O)N[C@H](C(=O)N[C@H](C(=O)O)c4cc(O)cc(O)c4-c4cc3ccc4O)[C@H](O)c3ccc(c(Cl)c3)Oc3cc2cc(c3O[C@@H]2O[C@H](CO)[C@@H](O)[C@H](O)[C@H]2O[C@H]2C[C@](C)(N)[C@H](O)[C@H](C)O2)Oc2ccc(cc2Cl)[C@H]1O` [vancomycin, reference compound], the median effective dose (ED50) is reported as 5.8 mg/kg.
